Laboratory results reported in US20070191336A1 (priority 2003, published 2007).
pIC50: −log10 of the molar value.

Target: T1, phospho p-38 alpha kinase (Homo sapiens, UniProt Q16539)
T1 construct: purchased Panvera
Assay: P-38 alpha kinase assay (spectrophotometric, pyruvate kinase/lactate dehydrogenase coupled)
Type: biochemical
Conditions: Table 3; rates from […] to 2 h time frame
Protocol: In this assay, the oxidation of NADH was continuously measured spectrophometrically. […] The reaction was initiated by adding ATP. The absorption at 340 nm was monitored continuously for up to 4 hours at 30° C. on Polarstar Optima plate reader (BMG). The kinase activity (reaction rate) was calculated from the slope at the time frame from 1.5 h to 2 h.
For inhibition determinations, test compounds were incubated with the reaction mixture for ˜5 min before adding ATP to start the reaction. […] IC50 values were calculated from a series of % inhibition values determined at a range of concentrations of each inhibitor using Prism to process the data and fit inhibition curves. Generally, the rates obtained at the time frame of 1.5 h to 2 h were used for these calculations.

T1 sequence (Q16539 whole entry): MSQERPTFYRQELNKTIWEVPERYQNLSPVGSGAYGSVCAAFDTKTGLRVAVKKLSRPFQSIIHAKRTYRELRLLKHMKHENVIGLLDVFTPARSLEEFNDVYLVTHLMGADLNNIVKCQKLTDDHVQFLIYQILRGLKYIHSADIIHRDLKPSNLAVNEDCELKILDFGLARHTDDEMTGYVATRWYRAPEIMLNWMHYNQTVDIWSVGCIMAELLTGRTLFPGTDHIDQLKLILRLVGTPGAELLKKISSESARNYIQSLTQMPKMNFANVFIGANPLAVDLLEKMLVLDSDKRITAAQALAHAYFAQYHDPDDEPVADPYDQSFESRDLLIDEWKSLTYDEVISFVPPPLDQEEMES

How did the pIC50 turn out when `CN(C)CCc1cccc(-n2nc(C(C)(C)C)cc2NC(=O)Nc2cccc(Cl)c2Cl)c1` [Example 383, 1-(3-t-butyl-1-{3-[2-(dimethylamino)ethyl]phenyl}-1H-pyrazol-5-yl)-3-(2,3-di-chlorophenyl)urea] was run?
The pIC50 was 7.00.

With `CN(C)C(=O)NCc1cccc(-n2nc(C(C)(C)C)cc2NC(=O)Nc2ccc(Cl)cc2)c1` [Example 491, 1-{3-t-butyl-1-[3-(3,3-dimethylureidomethyl)phenyl]-1H-pyrazol-5-yl}-3-(4-chlorophenyl)urea] as the compound, how does the pIC50 read?
Its pIC50 is 6.47.

With `CC(C)(C)c1cc(NC(=O)Nc2ccc(Cl)cc2)n(-c2cccc(CN3C(=O)CCC3=O)c2)n1` [Example 320, 1-(3-t-butyl-1-{3-[(2,5-dioxopyrrolidin-1-yl)methyl]phenyl}-1H-pyrazol-5-yl)-3-(4-chlorophenyl)urea] as the compound, how does the pIC50 read?
Its pIC50 is 6.10.

`CC(C)(C)c1cc(NC(=O)Nc2cccc3ccccc23)n(-c2cccc(CN3C(=O)C(=O)NS3(=O)=O)c2)n1` [Example 482, 1-{5-t-butyl-2-[3-(1,1,3,4-tetraoxo-1λ^6-[1,2,5]thiadiazolidin-2-ylmethyl)phenyl]-2H-pyrazol-3-yl}-3-(naphthalen-1-yl)urea] was tested. Which pIC50 did it give?
Its pIC50 is 7.08.

How did the pIC50 turn out when `CC(C)(C)c1cc(NC(=O)Nc2cccc(F)c2F)n(-c2cccc(CO)c2)n1` [Example 395, 1-{3-t-butyl-1-[3-(hydroxymethyl)phenyl]-1H-pyrazol-5-yl}-3-(2,3-difluorophenyl)urea] was run?
Its pIC50 is 7.25.

How did the pIC50 turn out when `CC(C)(C)c1cc(NC(=O)Nc2cccc3ccccc23)n(-c2ccc(OCC(=O)O)cc2)n1` [Example 520, 1-(3-t-butyl-1-(4-(carboxymethyl)oxyphenyl)-1H-pyrazol-5-yl)-3-(naphthalen-1-yl)urea] was run?
The pIC50 was 8.04.

`CC(C)(C)c1cc(NC(=O)Nc2cccc(Cl)c2Cl)n(-c2ccc(CO)cc2)n1` [Example 466, 1-{3-t-butyl-1-[4-(hydroxymethyl)phenyl]-1H-pyrazol-5-yl}-3-(2,3-dichloro-phenyl)urea] was tested. Which pIC50 did it give?
The pIC50 was 8.15.

With `COc1cccc(-n2nc(C(C)(C)C)cc2NC(=O)Nc2cccc(Br)c2)c1` [Example 312, 1-(3-t-butyl-1-(3-methoxyphenyl)-1H-pyrazol-5-yl)-3-(3-bromophenyl)urea] as the compound, how does the pIC50 read?
The pIC50 was 6.46.

With `CC(C)(C)c1cc(NC(=O)Nc2cccc(Cl)c2Cl)n(-c2cccc(C(=O)O)c2)n1` [Example 477, 3-{3-t-butyl-5-[3-(2,3-dichlorophenyl)ureido]-1H-pyrazol-1-yl}benzoic acid] as the compound, how does the pIC50 read?
Its pIC50 is 7.38.

`CC(Cc1ccc(-n2nc(C(C)(C)C)cc2NC(=O)Nc2cccc3ccccc23)cc1)C(=O)O` (centres unmarked) [Example 428, 3-(4-{3-t-butyl-5-[3-(naphthalen-1-yl)ureido]-1H-pyrazol-1-yl}phenyl)-2-methylpropanoic acid] was tested. Which pIC50 did it give?
Its pIC50 is 6.85.

`CC(C)(C)c1cc(NC(=O)Nc2cccc(Cl)c2Cl)n(-c2cccc(CCC(=O)O)c2)n1` [Example 365, 3-(3-{3-t-Butyl-5-[3-(2,3-dichloro-phenyl)ureido]-1H-pyrazol-1-yl}-phenyl)propionic acid] was tested. Which pIC50 did it give?
Its pIC50 is 8.15.

`CC(C)(C)c1cc(NC(=O)Nc2ccccc2F)n(-c2cccc(CCC(=O)O)c2)n1` [Example 363, 3-(3-{3-t-butyl-5-[3-(2-fluorophenyl)ureido]-11H-pyrazol-1-yl}-phenyl)propionic acid] was tested. Which pIC50 did it give?
Its pIC50 is 6.72.

How did the pIC50 turn out when `CC(C)(C)c1cc(NC(=O)Nc2cccc3ccccc23)n(-c2cccc(CNC(=O)N3CCOCC3)c2)n1` [Example 485, 1-(3-t-butyl-1-{3-[(morpholine-4-carboxamido)methyl]phenyl}-1H-pyrazol-5-yl)-3-(naphthalen-1-yl)urea] was run?
The pIC50 was 7.30.

`O=C(Nc1cccc(Br)c1)Nc1cc(-c2ccccc2)nn1-c1cccc(CO)c1` [Example 456, 1-(3-bromophenyl)-3-{1-[3-(hydroxymethyl)phenyl]-3-phenyl-1H-pyrazol-5-yl}urea] was tested. Which pIC50 did it give?
Its pIC50 is 7.40.

How did the pIC50 turn out when `CC(C)(C)c1cc(NC(=O)Nc2cccc3ccccc23)n(-c2ccc3c(c2)CNCC3)n1` [Example 509, 1-[3-t-butyl-1-(1,2,3,4-tetrahydroisoquinolin-7-yl)-1H-pyrazol-5-yl]-3-(naphthalen-1-yl)urea] was run?
The pIC50 was 6.30.

With `CC(C)(C)c1cc(NC(=O)Nc2cccc3ccccc23)n(-c2ccc(CO)cc2)n1` [Example 461, 1-{3-t-butyl-1-[4-(hydroxymethyl)phenyl]-1H-pyrazol-5-yl}-3-(naphthalen-1-yl)urea] as the compound, how does the pIC50 read?
Its pIC50 is 7.77.

How did the pIC50 turn out when `COc1cccc(-n2nc(C(C)(C)C)cc2NC(=O)Nc2ccc(F)cc2)c1` [Example 309, 1-(3-t-butyl-1-(3-methoxyphenyl)-1H-pyrazol-5-yl)-3-(4-fluorophenyl)urea] was run?
The pIC50 was 6.52.

`CC(O)c1cccc(-n2nc(C(C)(C)C)cc2NC(=O)Nc2cccc3ccccc23)c1` (centres unmarked) [Example 472, 1-{3-t-butyl-1-[3-(1-hydroxyethyl)phenyl]-1H-pyrazol-5-yl}-3-(naphthalen-1yl)urea] was tested. Which pIC50 did it give?
The pIC50 was 7.30.

`CC(=O)N1CCc2ccc(-n3nc(C(C)(C)C)cc3NC(=O)Nc3cccc(Cl)c3Cl)cc2C1` [Example 512, 1-[1-(2-acetyl-1,2,3,4-tetrahydroisoquinolin-7-yl)-3-t-butyl-1H-pyrazol-5-yl]-3-(2,3-dichlorophenyl)urea] was tested. Which pIC50 did it give?
Its pIC50 is 7.49.

With `CCOC(=O)Cc1ccc(-n2nc(C(C)(C)C)cc2NC(=O)Nc2cccc(Cl)c2Cl)cc1` [Example 421] as the compound, how does the pIC50 read?
Its pIC50 is 7.83.

`CC(C)(C)c1cc(NC(=O)Nc2cccc(C(F)(F)F)c2)n(-c2cccc(CCN)c2)n1` [Example 380, 1-{1-[3-(2-aminoethyl)phenyl]-3-t-butyl-1H-pyrazol-5-yl}-3-[3-(trifluoromethyl)phenyl]urea] was tested. Which pIC50 did it give?
The pIC50 was 5.70.

With `CC(C)(C)c1cc(NC(=O)Nc2cccc(Cl)c2Cl)n(-c2ccc(C(C)(C)O)cc2)n1` [Example 467, 1-{3-t-butyl-1-[4-(2-hydroxypropan-2-yl)phenyl]-1H-pyrazol-5-yl}-3-(2,3-dichlorophenyl)urea] as the compound, how does the pIC50 read?
Its pIC50 is 6.92.

How did the pIC50 turn out when `COc1cccc(-n2nc(C(C)(C)C)cc2NC(=O)Nc2cccc(Cl)c2)c1` [Example 311, 1-(3-t-butyl-1-(3-methoxyphenyl)-1H-pyrazol-5-yl)-3-(3-chlorophenyl)urea] was run?
The pIC50 was 6.74.

How did the pIC50 turn out when `COc1cccc(-n2nc(C(C)(C)C)cc2NC(=O)Nc2ccc(Cl)c(C(F)(F)F)c2)c1` [Example 316, 1-(3-t-butyl-1-(3-methoxyphenyl)-1H-pyrazol-5-yl)-3-(4-chloro-3-(trifluoromethyl)phenyl)urea] was run?
Its pIC50 is 6.38.

How did the pIC50 turn out when `COc1cccc(NC(=O)Nc2cc(-c3ccccc3)nn2-c2cccc(CO)c2)c1` [Example 458, 1-{3-phenyl-1-[3-(hydroxymethyl)phenyl]-1H-pyrazol-5-yl}-3-(3-methoxyphenyl)urea] was run?
The pIC50 was 6.00.

With `CC(C)(C)c1cc(NC(=O)Nc2ccccc2F)n(-c2cccc(CO)c2)n1` [Example 303, 1-{3-t-butyl-1-[3-(hydroxymethyl)phenyl]-1H-pyrazol-5-yl}-3-(2-fluorophenyl)urea] as the compound, how does the pIC50 read?
Its pIC50 is 7.05.

`CC(C)(C)c1cc(NC(=O)Nc2ccccc2F)n(-c2ccc(CC(=O)O)cc2)n1` [Example 306, 2-(4-(3-t-butyl-5-(3-(2-fluorophenyl)ureido)-1H-pyrazol-1-yl)phenyl)acetic acid] was tested. Which pIC50 did it give?
Its pIC50 is 7.24.

How did the pIC50 turn out when `CC(C)(C)c1cc(NC(=O)Nc2cccc(Cl)c2Cl)n(-c2cccc(CCN)c2)n1` [Example 374, 1-{1-[3-(2-aminoethyl)phenyl]-3-t-butyl-1H-pyrazol-5-yl}-3-(2,3-dichlorophenyl)urea] was run?
Its pIC50 is 7.43.

`COc1cccc(-n2nc(-c3ccccc3)cc2NC(=O)Nc2cccc(Br)c2)c1` [Example 332] was tested. Which pIC50 did it give?
Its pIC50 is 7.30.

How did the pIC50 turn out when `CC(C)(C)c1cc(NC(=O)Nc2cccc(C(F)(F)F)c2)n(-c2cccc(CN)c2)n1` [Example 387, 1-{1-[3-(aminomethyl)phenyl]-3-t-butyl-1H-pyrazol-5-yl}-3-(3-(trifluoro-methyl)phenyl)urea] was run?
Its pIC50 is 5.35.

How did the pIC50 turn out when `COC(=O)COc1ccc(-n2nc(C(C)(C)C)cc2NC(=O)Nc2cccc3ccccc23)cc1` [Example 519, 1-(3-t-butyl-1-(4-(carbomethoxymethyl)oxyphenyl)-1H-pyrazol-5-yl)-3-(naphthalen-1-yl)urea] was run?
Its pIC50 is 7.28.

Same assay, conditions: read-out: % Inhibition @ concentration, Table 3; at 0.1 uM

Which inhibition at 0.1 µM does the source give for `CCOC(=O)CCc1cccc(-n2nc(C(C)C)cc2NC(=O)Nc2ccc(Cl)cc2)c1` [Example 416, ethyl 3-(3-(5-(3-(4-chlorophenyl)ureido)-3-isopropyl-1H-pyrazol-1-yl)phenyl)propanoate] here?
The inhibition at 0.1 µM was 67%.

With `CC(C)(C)c1cc(NC(=O)Nc2ccc(Cl)cc2)n(-c2ccc(OCC(=O)O)cc2)n1` [Example 526, 1-(3-t-butyl-1-(4-(carboxymethyl)oxyphenyl)-1H-pyrazol-5-yl)-3-(4-chlorophenyl-1-yl)urea] as the compound, how does the inhibition at 0.1 µM read?
The inhibition at 0.1 µM was 25%.

With `CC(C)(C)c1cc(NC(=O)Nc2cccc(Cl)c2Cl)n(-c2cccc(C(N)=O)c2)n1` [Example 392, 1-[3-t-butyl-1-(3-carbamoylphenyl)-1H-pyrazol-5-yl]-3-(2,3-dichlorophenyl)urea] as the compound, how does the inhibition at 0.1 µM read?
The inhibition at 0.1 µM was 75%.

`CC(C)(C)c1cc(NC(=O)Nc2ccc(Cl)cc2)n(-c2cccc(CN)c2)n1` [Example 390, 1-{1-[3-(aminomethyl)phenyl]-3-t-butyl-1H-pyrazol-5-yl}-3-(4-chloro-phenyl)urea] was tested. Which inhibition at 0.1 µM did it give?
Its inhibition at 0.1 µM is 24%.

Same assay, conditions: read-out: % Inhibition @ concentration, Table 3; at 1 uM

For `CCOC(=O)CCc1cccc(-n2nc(C(C)C)cc2NC(=O)Nc2ccc(Cl)cc2)c1` [Example 416, ethyl 3-(3-(5-(3-(4-chlorophenyl)ureido)-3-isopropyl-1H-pyrazol-1-yl)phenyl)propanoate], which inhibition at 1 µM is on record?
Its inhibition at 1 µM is 83%.

`CC(C)(C)c1cc(NC(=O)Nc2ccc(Cl)cc2)n(-c2ccc(OCC(=O)O)cc2)n1` [Example 526, 1-(3-t-butyl-1-(4-(carboxymethyl)oxyphenyl)-1H-pyrazol-5-yl)-3-(4-chlorophenyl-1-yl)urea] was tested. Which inhibition at 1 µM did it give?
Its inhibition at 1 µM is 70%.

How did the inhibition at 1 µM turn out when `CC(C)(C)c1cc(NC(=O)Nc2cccc(Cl)c2Cl)n(-c2cccc(C(N)=O)c2)n1` [Example 392, 1-[3-t-butyl-1-(3-carbamoylphenyl)-1H-pyrazol-5-yl]-3-(2,3-dichlorophenyl)urea] was run?
Its inhibition at 1 µM is 86%.

`CC(C)(C)c1cc(NC(=O)Nc2ccc(Cl)cc2)n(-c2cccc(CN)c2)n1` [Example 390, 1-{1-[3-(aminomethyl)phenyl]-3-t-butyl-1H-pyrazol-5-yl}-3-(4-chloro-phenyl)urea] was tested. Which inhibition at 1 µM did it give?
The inhibition at 1 µM was 63%.

Same assay, conditions: read-out: % Inhibition @ concentration, Table 3; at 2 uM

With `COc1cccc(-n2nc(C)cc2NC(=O)Nc2cccc(C(F)(F)F)c2)c1` [Example 338, 1-(1-(3-methoxyphenyl)-3-methyl-1H-pyrazol-5-yl)-3-(3-(trifluoromethyl)phenyl)urea] as the compound, how does the inhibition at 2 µM read?
The inhibition at 2 µM was 7%.

Same assay, conditions: read-out: % Inhibition @ concentration, Table 3; at 10 uM

For `COc1cccc(-n2nc(C(C)(C)C)cc2NC(=O)Nc2cccc(C#N)c2)c1` [Example 325, 1-(3-t-butyl-1-(3-methoxyphenyl)-1H-pyrazol-5-yl)-3-(3-cyanophenyl)urea], which inhibition at 10 µM is on record?
Its inhibition at 10 µM is 54%.
